Test results taken from US12180187B2, “1-phenyl-5-azinylpyrazolyl-3-oxyalkyl acids and their use for controlling unwanted plant growth” (BAYER AKTIENGESELLSCHAFT, priority 2019, dated 2024).

Assays:
POAAN [1] = test: Pre-emergence action against POAAN, 1280 g/ha; format: in vivo, Poa annua; conditions: visual scoring after about 3 weeks vs untreated controls, 100% = plants have died, 0% = like control plants
Excerpt: (§1) 1. Pre-Emergence Herbicidal Effect and Crop Plant Compatibility a) Seeds of mono- and dicotyledonous weed plants are placed in plastic pots in sandy loam soil (doubly sown with one species each of mono- or dicotyledonous weed plants per pot) and covered with soil. The compounds of the invention, formulated in the form of wettable powders (WP) or as emulsion concentrates (EC), are then applied onto the surface of the covering soil as aqueous suspension or emulsion with addition of 0.5% additive at a water application rate equivalent to 600 litres per hectare. After the treatment, the pots are placed in a greenhouse and kept under good growth conditions for the trial plants. After about 3 weeks, the effect of the preparations is scored visually in comparison with untreated controls as percentages. For example, 100% activity=the plants have died, 0% activity=like control plants. 1. Pre-Emergence Effectiveness Tables 1 to 12 below show the effects of selected compounds of the general formula (I) according to Tables 1 and 2 on various harmful plants and at an application rate corresponding to 1280 g/ha, which were obtained by the experimental procedure mentioned above.

SETVI [2] = test: Post-emergence action against SETVI, 1.28 kg/ha; format: in vivo, Setaria viridis; conditions: dosage 1280 g/ha, visual rating about 3 weeks after treatment vs untreated controls
Procedure: (§2) • a) Seeds of mono- and dicotyledonous weed plants are placed in plastic pots in sandy loam soil (twin sowing with one species each of mono- or dicotyledonous weed plants per pot), covered with soil and cultivated in a greenhouse under controlled growth conditions. 2 to 3 weeks after sowing, the test plants are treated at the one-leaf stage. The compounds of the invention, formulated in the form of wettable powders (WP) or as emulsion concentrates (EC), are applied to the green parts of the plants as aqueous suspension or emulsion with addition of 0.5% additive at a water application rate equivalent to 600 litres per hectare. After the test plants have been kept in the greenhouse under optimum growth conditions for about 3 weeks, the activity of the preparations is rated visually in comparison to untreated controls. For example, 100% activity=the plants have died, 0% activity=like control plants. As shown by the results, compounds of the general formula (I) of the invention, in post-emergence treatment, have very good herbicidal efficacy (90% to 100% herbicidal action) against harmful plants such as Abutilon theophrasti, Digitaria sanguinalis, Echinochloa crus-galli, Matricaria inodora, Poa annua, at an application rate of 1.28 kg of active substance per hectare.

POAAN [3] = test: Post-emergence action against POAAN, 1.28 kg/ha; format: in vivo, Poa annua; conditions: dosage 1280 g/ha, visual rating about 3 weeks after treatment vs untreated controls
Procedure: as §2

SETVI [4] = test: Pre-emergence action against SETVI, 1280 g/ha; format: in vivo, Setaria viridis; conditions: visual scoring after about 3 weeks vs untreated controls, 100% = plants have died, 0% = like control plants
Excerpt: as §1

MATIN [5] = test: Post-emergence action against MATIN, 1.28 kg/ha; format: in vivo, Tripleurospermum inodorum (Matricaria inodora); conditions: dosage 1280 g/ha, visual rating about 3 weeks after treatment vs untreated controls (100% = plants died)
Procedure: as §2

ECHCG [6] = test: Post-emergence action against ECHCG, 1.28 kg/ha; format: in vivo, Echinochloa crus-galli; conditions: dosage 1280 g/ha, visual rating about 3 weeks after treatment vs untreated controls
Procedure: as §2

VERPE [7] = test: Pre-emergence action against VERPE, 1280 g/ha; format: in vivo, Veronica persica; conditions: scored visually after about 3 weeks vs untreated controls (100% = plants have died)
Excerpt: as §1

LOLRI [8] = test: Pre-emergence action against LOLRI, 1280 g/ha; format: in vivo, Lolium rigidum; conditions: visual scoring after about 3 weeks vs untreated controls, 100% = plants have died, 0% = like control plants
Excerpt: as §1

VERPE [9] = test: Post-emergence action against VERPE, 1.28 kg/ha; format: in vivo, Veronica persica; conditions: dosage 1280 g/ha, visual rating about 3 weeks after treatment vs untreated controls (100% = plants died)
Procedure: as §2

STEME [10] = test: Pre-emergence action against STEME, 1280 g/ha; format: in vivo, Stellaria media; conditions: scored visually after about 3 weeks vs untreated controls (100% = plants have died)
Excerpt: as §1

MATIN [11] = test: Pre-emergence action against MATIN, 1280 g/ha; format: in vivo, Tripleurospermum inodorum (Matricaria inodora); conditions: scored visually after about 3 weeks vs untreated controls (100% = plants have died)
Excerpt: as §1

AMARE [12] = test: Post-emergence action against AMARE, 1.28 kg/ha; format: in vivo, Amaranthus retroflexus; conditions: dosage 1280 g/ha, visual rating about 3 weeks after treatment vs untreated controls (100% = plants died)
Procedure: as §2

AMARE [13] = test: Pre-emergence action against AMARE, 1280 g/ha; format: in vivo, Amaranthus retroflexus; conditions: scored visually after about 3 weeks vs untreated controls (100% = plants have died)
Excerpt: as §1

ECHCG [14] = test: Pre-emergence action against ECHCG, 1280 g/ha; format: in vivo, Echinochloa crus-galli; conditions: visual scoring after about 3 weeks vs untreated controls, 100% = plants have died, 0% = like control plants
Excerpt: as §1

STEME [15] = test: Post-emergence action against STEME, 1.28 kg/ha; format: in vivo, Stellaria media; conditions: dosage 1280 g/ha, visual rating about 3 weeks after treatment vs untreated controls (100% = plants died)
Procedure: as §2

ABUTH = test: Post-emergence action against ABUTH, 1.28 kg/ha; format: in vivo, Abutilon theophrasti; conditions: dosage 1280 g/ha, visual rating about 3 weeks after treatment vs untreated controls (100% = plants died)
Procedure: as §2

DIGSA [16] = test: Post-emergence action against DIGSA, 1.28 kg/ha; format: in vivo, Digitaria sanguinalis; conditions: dosage 1280 g/ha, visual rating about 3 weeks after treatment vs untreated controls
Procedure: as §2

ALOMY [17] = test: Post-emergence action against ALOMY, 1.28 kg/ha; format: in vivo, Alopecurus myosuroides; conditions: dosage 1280 g/ha, visual rating about 3 weeks after treatment vs untreated controls
Procedure: as §2

DIGSA [18] = test: Pre-emergence action against DIGSA, 1280 g/ha; format: in vivo, Digitaria sanguinalis; conditions: visual scoring after about 3 weeks vs untreated controls, 100% = plants have died, 0% = like control plants
Excerpt: as §1

POLCO = test: Pre-emergence action at 320 g/ha against POLCO; format: in vivo, Fallopia convolvulus (Polygonum convolvulus); conditions: visual scoring after about 3 weeks vs untreated controls
Excerpt: (§3) b) Seeds of monocotyledonous and dicotyledonous weed plants and crop plants are placed in plastic or organic planting pots and covered with soil. The compounds of the invention, formulated in the form of wettable powders (WP) or as emulsion concentrates (EC), are then applied onto the surface of the covering soil as aqueous suspension or emulsion with addition of 0.5% additive at a water application rate of 600 l/ha (converted). After the treatment, the pots are placed in a greenhouse and kept under good growth conditions for the trial plants. After about 3 weeks, the effect of the preparations is scored visually in comparison with untreated controls as percentages. For example, 100% activity=the plants have died, 0% activity=like control plants. Tables 13 to 26 below show the effects of selected compounds of the general formula (I) on various harmful plants and at an application rate corresponding to 320 g/ha, which were obtained by the experimental procedure mentioned above.

AMARE [19] = test: Pre-emergence action at 320 g/ha against AMARE; format: in vivo, Amaranthus retroflexus; conditions: visual scoring after about 3 weeks vs untreated controls
Excerpt: as §3

LOLRI [20] = test: Pre-emergence action at 320 g/ha against LOLRI; format: in vivo, Lolium rigidum; conditions: visual scoring after about 3 weeks vs untreated controls
Excerpt: as §3

VIOTR = test: Pre-emergence action at 320 g/ha against VIOTR; format: in vivo, Viola tricolor; conditions: dosage 320 g/ha
Excerpt: as §3

VERPE [21] = test: Pre-emergence action at 320 g/ha against VERPE; format: in vivo, Veronica persica; conditions: visual scoring after about 3 weeks vs untreated controls
Excerpt: as §3

ALOMY [22] = test: Pre-emergence action at 320 g/ha against ALOMY; format: in vivo, Alopecurus myosuroides; conditions: scored visually after about 3 weeks vs untreated controls (100% = plants have died)
Excerpt: as §3

MATIN [23] = test: Pre-emergence action at 320 g/ha against MATIN; format: in vivo, Tripleurospermum inodorum (Matricaria inodora); conditions: visual scoring after about 3 weeks vs untreated controls
Excerpt: as §3

DIGSA [24] = test: Pre-emergence action at 320 g/ha against DIGSA; format: in vivo, Digitaria sanguinalis; conditions: visual scoring after about 3 weeks vs untreated controls
Excerpt: as §3

ALOMY [25] = test: Pre-emergence action against ALOMY, 1280 g/ha; format: in vivo, Alopecurus myosuroides; conditions: visual scoring after about 3 weeks vs untreated controls, 100% = plants have died, 0% = like control plants
Excerpt: as §1

Structure (SMILES)	Pre-emergence action against POAAN (POAAN [1]) [%]	Post-emergence action against SETVI (SETVI [2]) [%]	Post-emergence action against POAAN (POAAN [3]) [%]	Pre-emergence action against SETVI (SETVI [4]) [%]	Post-emergence action against MATIN (MATIN [5]) [%]	Post-emergence action against ECHCG (ECHCG [6]) [%]	Pre-emergence action against VERPE (VERPE [7]) [%]	Pre-emergence action against LOLRI (LOLRI [8]) [%]	Post-emergence action against VERPE (VERPE [9]) [%]	Pre-emergence action against STEME (STEME [10]) [%]	Pre-emergence action against MATIN (MATIN [11]) [%]	Post-emergence action against AMARE (AMARE [12]) [%]	Pre-emergence action against AMARE (AMARE [13]) [%]	Pre-emergence action against ECHCG (ECHCG [14]) [%]	Post-emergence action against STEME (STEME [15]) [%]	Post-emergence action against ABUTH (ABUTH) [%]	Pre-emergence action against AMARE in % (AMARE [19]) [%]	Pre-emergence action against VIOTR in % (VIOTR) [%]	Pre-emergence action against VERPE in % (VERPE [21]) [%]	Pre-emergence action at 320 g/ha against ALOMY in % (ALOMY [22]) [%]	other results
CCOC(=O)COc1nn(-c2cc(F)c(F)cc2F)c(-c2ccc(F)nc2)c1Cl [VII-009]	100	90	100	100	100	100	90	100	90	100	100	100	100	90	100	90	–	–	–	–	–
CCOC(=O)COc1nn(-c2ccc(F)cc2F)c(-c2ccc(F)nc2)c1F [VII-027]	90	90	–	90	–	–	–	100	90	100	90	90	90	90	–	–	–	–	–	–	Post-emergence action against DIGSA (DIGSA [16]): 100%; Post-emergence action against ALOMY (ALOMY [17]): 100%; Pre-emergence action against DIGSA (DIGSA [18]): 90%
C[C@@H](Oc1nn(-c2ccccc2)c(-c2cccnc2)c1Cl)C(=O)O [VII-042]	–	–	–	–	–	–	–	–	–	–	–	–	–	–	–	–	100	100	90	90	Pre-emergence action against POLCO in % (POLCO): 100%; Pre-emergence action against LOLRI in % (LOLRI [20]): 100%; Pre-emergence action against MATIN in % (MATIN [23]): 90%
CCOC(=O)C(F)Oc1nn(-c2ccccc2F)c(-c2ccc(F)nc2)c1Br (stereo not drawn) [VII-071-a]	–	–	–	–	–	–	–	–	–	–	–	–	–	–	–	–	100	100	80	80	Pre-emergence action against DIGSA in % (DIGSA [24]): 90%; Pre-emergence action against POLCO in % (POLCO): 90%; Pre-emergence action against LOLRI in % (LOLRI [20]): 100%; Pre-emergence action against MATIN in % (MATIN [23]): 90%
CCOC(=O)COc1nn(-c2ccccc2F)c(-c2ccc(F)nc2)c1C(F)F [VII-078]	–	–	–	–	–	–	–	–	–	–	–	–	–	–	–	–	100	90	80	80	–
C#Cc1c(OCC(=O)OCC)nn(-c2ccccc2F)c1-c1ccc(F)nc1 [VII-088]	100	90	100	100	100	100	100	100	–	100	100	100	100	100	90	90	–	–	–	–	Post-emergence action against DIGSA (DIGSA [16]): 100%; Pre-emergence action against ALOMY (ALOMY [25]): 100%; Pre-emergence action against DIGSA (DIGSA [18]): 100%
